The source of these data is the NIST ThermoML archive (doi:10.1016/j.fluid.2012.09.027).

The conditions of data set [1]: Crystal; DTA.
A short description of data set [2]: Molar enthalpy of transition or fusion. The note with it: Crystal; DSC.

Structures are written as SMILES. Numbers after ± are expanded uncertainties.

Regarding `CCOc1nc2cccc(C(=O)OC(C)OC(=O)OC3CCCCC3)c2n1Cc1ccc(-c2ccccc2)c(-c2nnn[nH]2)c1` (configuration not stated), the Normal melting temperature in data set [1] was found to be 169 ± 1 °C. Moreover, the “Molar enthalpy of transition or fusion” value in data set [2] was determined as 6.63 ± 0.189 kcal/mol.
